# Tests used:
# Format in all cases: in vivo, mouse
# [1] = system: MCP-1; test: mRNA expression of MCP-1 in PDAPP mice immunized with Aβ1-42 or a fragment, quantitative RT-PCR; conditions: tissue not given
# From the text: (§1) RNA was isolated from brain tissues using the S.N.A.P.™ Total RNA Isolation Kit (Invitrogen, Carlsbad, Calif.) according to manufacturer's instructions, with the following modifications: the tissue was homogenized for 20 seconds using a rotor-stator homogenizer (Fisher Scientific). The DNA digestion step was repeated a second time following isopropanol precipitation.
# (§2) Quantitative PCR assays were run on a Perkin Elmer 7700 Sequencer using methods and materials provided by Perkin Elmer (Applied Biosystems Division, Foster City, Calif.). Primers and fluorescent probes were obtained from Perkin Elmer; the sequences and concentrations of primers and probes used for the various assays are listed in Table 1 below. PCR reactions were set up using approximately 300 nM concentrations of each of the forward and reverse primers, 100 nM probe and RNA extracted from the tissue of interest (20 ng). Each reaction also included a standard RNA for comparison. Data were normalized to total RNA or to GAPDH. Standard curves were run using standard RNA prepared from the appropriate tissue (e.g., brain total RNA). Sample results were normalized to the amount of RNA measured by OD and or control message (e.g., GAPDH).
# (§3) Thus, the efficacy of Aβ-treatment can be assessed by comparing the mRNA expression of such markers.
# [2] = system: IFN-γ; test: mRNA expression of IFN-γ in PDAPP mice immunized with Aβ1-42 or a fragment, quantitative RT-PCR; conditions: tissue not given
# From the text: as §1, §2, §3
# [3] = system: Igk; test: mRNA expression of Igk in PDAPP mice immunized with Aβ1-42 or a fragment, quantitative RT-PCR; conditions: tissue not given
# From the text: as §1, §2, §3
# [4] = system: CD4; test: mRNA expression of CD4 in PDAPP mice immunized with Aβ1-42 or a fragment, quantitative RT-PCR; conditions: tissue not given
# From the text: as §1, §2, §3
# [5] = system: IgG-1; test: mRNA expression of IgG-1 in PDAPP mice immunized with Aβ1-42 or a fragment, quantitative RT-PCR; conditions: Fr cortex
# From the text: as §1, §2, §3
Substance,"MCP-1 mRNA, ratio of Aβ-treated mice to non-Aβ-treated mice [1] [X]","IFN-γ mRNA, ratio of Aβ-treated mice to non-Aβ-treated mice [2]","Igk mRNA, ratio of Aβ-treated mice to non-Aβ-treated mice [3] [X]","CD4 mRNA, ratio of Aβ-treated mice to non-Aβ-treated mice [4] [X]","IgG-1 mRNA, ratio of Aβ-treated mice to non-Aβ-treated mice [5] [X]"
"Aβ1-5: fragment of Aβ1-42 used to immunize PDAPP mice (DAEFR; Amyloid-beta protein 42; UniProt P05067 672-676, looked up, fragment)",0.75,.8X,2.10,0.99,
Aβ1-42: amyloid β-peptide 1-42 used to immunize PDAPP mice,,,,,300

# From US6664442B2, “Selecting compounds to reduce inflammation associated with Alzheimer's disease” (Elan Pharmaceuticals, Inc., priority 2000, dated 2003)
